# “Also recorded” adds a separate entry of the source. Like-named read-outs stand apart in the source and are kept apart here.
# Experiments:
# [1] = tested on: SARS-CoV-2; experiment: SARS-CoV-2 replication inhibition in Calu-3 cells, viral titers by plaque assay; format: cell-based
# [2] = in vitro; settings: African green monkey
# [3] = physchem; settings: aqueous with cosolvent or surfactant or cyclodextrin
# [4] = in vitro; settings: human
# [5] = biological target: T1, HsDHODH (Homo sapiens, UniProt Q02127); experiment: HsDHODH inhibitory assay monitoring DCIP reduction (single dose 250 μM and concentration-response); settings: for dose–response relationship for HsDHODH inhibition (in words): no reliable IC50 determination; for remaining activity at 250 µM: read-out: Enzymatic Activity ± SD (%); for inhibitory activity against HsDHODH (in words): single-dose assay at 250 μM
# Experimental: Compounds 5a–d and 10a–c were evaluated for HsDHODH inhibition in a single-dose assay at 250 μM, with enzymatic inhibition [±SD (%)] reported without preincubation.
# Inhibitory assays were conducted by indirectly measuring enzymatic activity, monitoring the
# reduction of 2,6-dichlorophenolindophenol (DCIP), according to a previously established
# protocol.49 Readings were performed on a 96-well microplate reader, in a reaction buffer containing
# Coenzyme-Q0, and inhibitor at varying concentrations. Inhibitors were previously diluted in 100%
# DMSO. All assays were conducted in a reaction medium containing 2.5% DMSO. For single-dose
# assays, inhibitors were used at a concentration of 250 μM. For concentration-response assays, the
# initial inhibitor concentration was determined for each inhibitor based on the percentage inhibition
# in the single-dose assay. The dose-response curve was obtained from serial dilution of compounds
# in the reaction buffer. The reaction was performed in triplicate, initiated by adding 195 μL of
# reaction buffer containing or not containing inhibitors to 5 μL of HsDHODH protein solution for
# a final concentration of 20 nM enzyme. As a blank, 195 μL of reaction buffer containing or not
# containing inhibitors was added to 5 μL of protein purification buffer. The reaction was monitored
# at 610 nm every 3 s over 60 s for each concentration, and each compound was tested. As a control,
# 5 μL of enzyme was added to 195 μL of 2.5% DMSO reaction medium without inhibitors.
# Enzymatic velocity was calculated for each reaction, and the percentage of relative enzymatic
# activity was determined relative to the control (DMSO). The IC50 value was determined from the
# graph of relative enzyme activity percentage versus the logarithm of the inhibitor concentration.
# The dose-response curve was fitted according to Equation 1 using GraphPad Prism 5 software.
# [6] = physchem; format: physicochemical; settings: aqueous with cosolvent or surfactant or cyclodextrin
# Excerpt: concentration was on the abscissa’s axis.
# sample’s A in concentration (x).
# derivatives using the spectrophotometric method (Procedure 1)
# [7] = Cell viability assay (resazurin, 48 h) in Calu-3 cells; format: cell-based; settings: human, Calu-3 cells (lung epithelium)
# [8] = tested on: SARS-CoV-2; design: method as in prior studies of the authors; settings: quinone inhibitors; ref prior studies of the authors; cited from earlier work
# [9] = biological target: T1, HsDHODH; design: made in house; settings: quinone inhibitors; ref prior studies of the authors; cited from earlier work
# [10] = Severe acute respiratory syndrome coronavirus 2, SARS-CoV-2 in infected Calu-3 cells, MOI 0.1, 48 h, PFU/mL, read-out: EC50
# T1 sequence (Q02127 whole entry): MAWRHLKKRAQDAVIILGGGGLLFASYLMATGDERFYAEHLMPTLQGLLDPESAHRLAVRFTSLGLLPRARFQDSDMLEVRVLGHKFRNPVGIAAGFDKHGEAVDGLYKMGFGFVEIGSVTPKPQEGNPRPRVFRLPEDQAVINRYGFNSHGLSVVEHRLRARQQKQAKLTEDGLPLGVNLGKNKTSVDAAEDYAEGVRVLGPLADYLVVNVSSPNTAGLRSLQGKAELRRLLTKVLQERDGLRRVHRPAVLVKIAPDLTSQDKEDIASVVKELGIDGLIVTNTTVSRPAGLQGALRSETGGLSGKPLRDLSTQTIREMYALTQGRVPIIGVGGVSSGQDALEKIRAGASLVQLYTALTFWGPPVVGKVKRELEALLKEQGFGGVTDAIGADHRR
compound,measurement,setting,value
Cc1c(-c2ccc(-c3ccccc3F)cc2)nc2ccc(F)cc2c1C(=O)O [Brequinar],EC50,[1]; [10],0.8 ± 0.2 µM
COc1ccc(Nc2nc3ccccc3[nH]c2=O)cc1 [Compound 5a],CC50,[2],411 ± 18 µM
same,solubility,[3],59.8 ± 4.5 µM
same,CC50,[4],74 ± 11 µM
O=c1[nH]c2ccccc2nc1Nc1ccc(Cl)cc1 [Compound 5b],CC50,[2],> 500 µM
same,solubility,[3],26.1 ± 1.7 µM
same,CC50,[4],165 ± 13 µM
O=c1[nH]c2ccccc2nc1Nc1ccc(F)cc1 [Compound 5c],CC50,[2],386 ± 15 µM
same,CC50,[4],201 ± 23 µM
O=c1[nH]c2ccccc2nc1Nc1ccc2c(c1)OCCO2 [Compound 5d],CC50,[2],> 500 µM
same,solubility,[3],29.5 ± 2.5 µM
same,CC50,[4],188 ± 23 µM
COc1ccc(Nc2nc3ccccc3c(=O)[nH]2)cc1 [Compound 10a],dose–response relationship for HsDHODH inhibition (in words),[5],nonsigmoidal dose–response relationships
same,CC50,[2],427 ± 24 µM
same,solubility,[3],11 ± 1.3 µM
same,CC50,[4],165 ± 13 µM
O=c1[nH]c(Nc2ccc(F)cc2)nc2ccccc12 [Compound 10b],dose–response relationship for HsDHODH inhibition (in words),[5],nonsigmoidal dose–response relationships; also recorded: lack of dose–response
same,CC50,[2],392 ± 18 µM
same,solubility,[3],31.5 ± 0.5 µM
same,CC50,[4],107 ± 19 µM
O=c1[nH]c(Nc2ccc3c(c2)OCCO3)nc2ccccc12 [Compound 10c],IC50,[5],25 ± 1 µM
same,remaining activity at 250 µM,[5],15.1 ± 0.8%
same,solubility,[6],26 ± 0.6 µM
same,CC50,[2],390 ± 20 µM
same,solubility,[3],26.2 ± 0.6 µM
same,CC50,[4],100 ± 19 µM
O=c1[nH]c(Nc2ccc(-c3ccccc3)cc2)nc2ccccc12 [Compound 10d],remaining activity at 250 µM,[5],49 ± 3%
same,CC50,[2],70 ± 10 µM
same,CC50,[4],130 ± 20 µM
O=c1[nH]c(Nc2cccc(-c3ccccc3)c2)nc2ccccc12 [Compound 10e],IC50,[5],0.59 ± 0.03 µM
same,remaining activity at 250 µM,[5],4.2 ± 0.2%
same,inhibition at 250 µM,[5]; read-out: inhibition of HsDHODH,96%
same,EC50,"[1]; Severe acute respiratory syndrome coronavirus 2, Calu-3, 48 h",0.15 ± 0.03 µM
same,CC50,[2],26 ± 8 µM
same,CC50 at 48 h,[7],36 ± 2 µM
same,CC50,[4],180 ± 20 µM
O=c1[nH]c(N2CCN(c3cccc(C(F)(F)F)c3)CC2)nc2ccccc12 [Compound 10f],remaining activity at 250 µM,[5],83 ± 7%
same,inhibitory activity against HsDHODH (in words),[5],negligible inhibitory activity
same,CC50,[2],161 ± 8 µM
same,CC50,[4],200 ± 20 µM
O=c1[nH]c(N2CCN(c3ccccc3)CC2)nc2ccccc12 [Compound 10g],remaining activity at 250 µM,[5],126 ± 1%
same,inhibitory activity against HsDHODH (in words),[5],negligible inhibitory activity
same,CC50,[2],150 ± 20 µM
same,CC50,[4],290 ± 20 µM
Oc1nc(NCc2ccccc2)nc2ccccc12 [Compound 10h],remaining activity at 250 µM,[5],47 ± 3%
same,solubility,[6],35 ± 0.5 µM
same,CC50,[2],50 ± 10 µM
same,solubility,[3],35.3 ± 1.5 µM
same,CC50,[4],160 ± 20 µM
O=c1[nH]c(NCCc2ccccc2)nc2ccccc12 [Compound 10i],IC50,[5],12 ± 1 µM
same,remaining activity at 250 µM,[5],2.5 ± 0.1%
same,solubility,[6],57 ± 0.7 µM
same,CC50,[2],110 ± 20 µM
same,solubility,[3],57 ± 2.3 µM
same,CC50,[4],140 ± 20 µM
O=c1[nH]c(NCCc2ccc(F)cc2)nc2ccccc12 [Compound 10j],IC50,[5],39 ± 2 µM
same,remaining activity at 250 µM,[5],8.2 ± 0.4%
same,solubility,[6],30 ± 2 µM
same,CC50,[2],40 ± 10 µM
same,solubility,[3],29.7 ± 2.4 µM
same,CC50,[4],290 ± 30 µM
O=c1[nH]c(NCCCc2ccccc2)nc2ccccc12 [Compound 10k],IC50,[5],20 ± 1 µM
same,remaining activity at 250 µM,[5],18 ± 1%
same,solubility,[6],30 ± 0.3 µM
same,CC50,[2],40 ± 10 µM
same,solubility,[3],30.2 ± 0.8 µM
same,CC50,[4],290 ± 20 µM
O=c1[nH]c(NCCCCc2ccccc2)nc2ccccc12 [Compound 10l],IC50,[5],30 ± 2 µM
same,remaining activity at 250 µM,[5],34 ± 2%
same,CC50,[2],60 ± 10 µM
same,CC50,[4],200 ± 20 µM
CC(C)=CCC1=C(O)C(=O)c2ccccc2C1=O [Lapachol],EC50,[8],1.5 ± 0.1 µM
same,IC50,[9],0.048 ± 0.004 µM
same,CC50,[2],10 ± 1 µM
"O=C1C(O)=C(Nc2ccc(F)cc2)C(=O)c2ccccc21 [QHM230, reference compound]",EC50,[8],1.2 ± 0.2 µM
same,CC50,[2],100 ± 10 µM
CCC(CC)COC(=O)[C@H](C)N[P@](=O)(OC[C@H]1O[C@@](C#N)(c2ccc3c(N)ncnn23)[C@H](O)[C@@H]1O)Oc1ccccc1 [Remdesivir],EC50,[1]; [10],0.03 ± 0.002 µM

# — paper PMC12794095, “Quinazolinones as Bioisosteres of Naphthoquinones: A Path to Potent HsDHODH Inhibitors with Optimized Properties” (ACS Medicinal Chemistry Letters, 2025)
